Experimental findings from patent US11596639B2, “Substituted indole Mcl-1 inhibitors” (Vanderbilt University, priority 2016, dated 2023) are described below.

Test [1] has as its system H929 human cancer cell lines. Nature of the test: Cellular viability / proliferation (Cell TiterGlo, 72 h). Type of test: cell-based. An outline of the steps:
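H929 cells plated at 1,000/well in 10% FBS medium received a 2-fold serial compound dilution (top 50 μM, DMSO <1%) 24 h later. After 72 h, viability was read by CellTiter-Glo luminescence. IC50 came from a four-parameter fit.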

The next test deals with Mcl-1 (Homo sapiens (Human), UniProt Q07820). Kind of test: Fluorescence polarization anisotropy (FPA) competition assay, FITC-Bak or FITC-Bim BH3 peptide. Type of test: binding. The conditions noted are these: read-out: Ki for Inhibition of Mcl-1 by FPA assay. (In general: In fluorescence polarisation assays a small probe gives low polarisation when free and higher when bound to something large.)
Mcl-1, sequence (Q07820 172-327): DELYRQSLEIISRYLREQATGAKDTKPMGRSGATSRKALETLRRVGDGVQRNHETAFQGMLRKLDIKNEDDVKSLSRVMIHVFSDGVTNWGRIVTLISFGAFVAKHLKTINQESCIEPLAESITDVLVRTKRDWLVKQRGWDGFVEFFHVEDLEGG

[2] abbreviates: read-out: GI50 on cellular proliferation of H929 human cancer cell lines, H929 cells, 72 h, Cell TiterGlo, 10% FBS.
Where [3] appears, read: Homo sapiens, NCI-H929, 72 h, read-out: GI50 on cellular proliferation of H929 human cancer cell lines, H929 cells, 72 h, Cell TiterGlo, 10% FBS.

pKi: −log10 of the molar value. Like-named read-outs stand apart in the source and are kept apart here.

What is called pKi is the negative decadic logarithm of the Ki, by convention in mol/L. For `Cc1cc(OCCCc2c3n(c4c(-c5c(C)nn(C)c5C)c(Cl)ccc24)[C@H](C)CN(c2cccc4c(C(=O)O)cn(C)c24)C3=O)cc(C)c1Cl` [Example 214, (R)-7-(7-chloro-10-(3-(4-chloro-3,5-dimethylphenoxy)propyl)-4-methyl-1-oxo-6-(1,3,5-trimethyl-1H-pyrazol-4-yl)-3,4-dihydropyrazino[1,2-a]indol-2(1H)-yl)-1-methyl-1H-indole-3-carboxylic acid], in test [1] (setting [2]), the GI50 worked out at 380 nM. The pKi on Mcl-1 was above 9.00.
The matching figures for `Cc1cc(OCCCc2c3n(c4c(-c5c(C)nn(C)c5C)c(Cl)ccc24)[C@H](C)CN(c2cccc4c(C(=O)O)cn(C)c24)C3=O)cc(C)c1Cl` [Example 215, (R)-7-(7-chloro-10-(3-(4-chloro-3,5-dimethylphenoxy)propyl)-4-methyl-1-oxo-6-(1,3,5-trimethyl-1H-pyrazol-4-yl)-3,4-dihydropyrazino[1,2-a]indol-2(1H)-yl)-1-methyl-1H-indole-3-carboxylic acid]: 430 nM and above 9.00.
With `Cc1cc(OCCCc2c3n(c4c(-c5c(C)ncnc5C)c(Cl)ccc24)[C@H](C)CN(c2cccc4cc(C(=O)O)ccc24)C3=O)cc(C)c1Cl` [Example 218, 5-[(4R)-7-chloro-10-[3-(4-chloro-3,5-dimethyl-phenoxy)propyl]-6-(4,6-dimethylpyrimidin-5-yl)-4-methyl-1-oxo-3,4-dihydropyrazino[1,2-a]indol-2-yl]naphthalene-2-carboxylic acid], the GI50 in test [1] (setting [3]) is below 200 nM. For the same compound, the pKi on Mcl-1 was above 9.00.
As to `Cc1cc(OCCCc2c3n(c4c(-c5c(C)ncnc5C)c(Cl)ccc24)CCCN(c2cccc4cc(C(=O)O)n(C)c24)C3=O)cc(C)c1Cl` [Example 219, 7-[8-Chloro-11-[3-(4-chloro-3,5-dimethyl-phenoxy)propyl]-7-(4,6-dimethylpyrimidin-5-yl)-1-oxo-4,5-dihydro-3H-[1,4]diazepino[1,2-a]indol-2-yl]-1-methyl-indole-2-carboxylic acid], in test [1] (setting [3]), the GI50 was found to be 1200 nM. Also, the pKi on Mcl-1 is 8.66.
On the same counts, the results for `Cc1cc(OCCCc2c3n(c4c(-c5c(C)ncnc5C)c(Cl)ccc24)CCCN(c2ccnc4ccc(C(=O)O)cc24)C3=O)cc(C)c1Cl` [Example 220, 4-[8-Chloro-11-[3-(4-chloro-3,5-dimethyl-phenoxy)propyl]-7-(4,6-dimethylpyrimidin-5-yl)-1-oxo-4,5-dihydro-3H-[1,4]diazepino[1,2-a]indol-2-yl]quinoline-6-carboxylic acid] are 2000 nM and above 9.00.
The matching figures for `Cc1cc(OCCCc2c3n(c4c(-c5c(C)nn(C)c5C)c(Cl)ccc24)[C@H](C)CN(c2cn(C)c4ccc(C(N)=O)cc24)C3=O)cc(C)c1Cl` [Example 221, 3-[(4R)-7-chloro-10-[3-(4-chloro-3,5-dimethyl-phenoxy)propyl]-4-methyl-1-oxo-6-(1,3,5-trimethylpyrazol-4-yl)-3,4-dihydropyrazino[1,2-a]indol-2-yl]-1-methyl-indole-5-carboxamide]: 450 nM and 8.60.
The matching figures for `Cc1cc(OCCCc2c3n(c4c(-c5c(C)nn(C)c5C)c(Cl)ccc24)[C@H](C)CN(c2cn(C)c4cc(S(C)(=O)=O)ccc24)C3=O)cc(C)c1Cl` [Example 222, (R)-7-chloro-10-(3-(4-chloro-3,5-dimethylphenoxy)propyl)-4-methyl-2-(1-methyl-6-(methylsulfonyl)-1H-indol-3-yl)-6-(1,3,5-trimethyl-1H-pyrazol-4-yl)-3,4-dihydropyrazino[1,2-a]indol-1(2H)-one]: 3000 nM and 8.16.
With `Cc1cc(OCCCc2c3n(c4c(-c5c(C)nn(C)c5C)c(Cl)ccc24)[C@H](C)CN(c2cn(C)c4ccc([N+](=O)[O-])cc24)C3=O)cc(C)c1Cl` [Example 223, (4R)-7-chloro-10-[3-(4-chloro-3,5-dimethyl-phenoxy)propyl]-4-methyl-2-(1-methyl-5-nitro-indol-3-yl)-6-(1,3,5-trimethylpyrazol-4-yl)-3,4-dihydropyrazino[1,2-a]indol-1-one], in test [1] (setting [3]), the GI50 is 5000 nM. For the same compound, at Mcl-1, the negative logarithm of the Ki (pKi) was 8.96.
On to `Cc1cc(OCCCc2c3n(c4c(-c5c(C)ncnc5C)c(Cl)ccc24)[C@H](C)CN(c2ccc(C(=O)O)c4cccnc24)C3=O)cc(C)c1Cl` [Example 224, 8-[(4R)-7-chloro-10-[3-(4-chloro-3,5-dimethyl-phenoxy)propyl]-6-(4,6-dimethylpyrimidin-5-yl)-4-methyl-1-oxo-3,4-dihydropyrazino[1,2-a]indol-2-yl]quinoline-5-carboxylic acid], for which the GI50 in test [1] (setting [3]) came to 2500 nM. Also, the pKi on Mcl-1 was above 9.00.
On the same counts, the results for `Cc1cc(OCCCc2c3n(c4c(-c5c(C)ncnc5C)c(Cl)ccc24)[C@H](C)CN(c2cccc4c(C(=O)O)ccnc24)C3=O)cc(C)c1Cl` [Example 225, 8-[(4R)-7-chloro-10-[3-(4-chloro-3,5-dimethyl-phenoxy)propyl]-6-(4,6-dimethylpyrimidin-5-yl)-4-methyl-1-oxo-3,4-dihydropyrazino[1,2-a]indol-2-yl]quinoline-4-carboxylic acid] are 3300 nM and above 9.00.
The matching figures for `Cc1cc(OCCCc2c3n(c4c(-c5c(C)nn(C)c5C)c(Cl)ccc24)[C@H](C)CN(c2cccc4cc5n(c24)CCN(C)C5=O)C3=O)cc(C)c1Cl` [Example 226, (4R)-7-chloro-10-[3-(4-chloro-3,5-dimethyl-phenoxy)propyl]-4-methyl-2-(2-methyl-1-oxo-3,4-dihydropyrazino[1,2-a]indol-6-yl)-6-(1,3,5-trimethylpyrazol-4-yl)-3,4-dihydropyrazino[1,2-a]indol-1-one]: 2600 nM and 8.31.
As for `Cc1cc(OCCCc2c3n(c4c(-c5c(C)ncnc5C)c(Cl)ccc24)[C@H](C)CN(c2cccc4cc(C(=O)O)cnc24)C3=O)cc(C)c1Cl` [Example 227, 8-[(4R)-7-chloro-10-[3-(4-chloro-3,5-dimethyl-phenoxy)propyl]-6-(4,6-dimethylpyrimidin-5-yl)-4-methyl-1-oxo-3,4-dihydropyrazino[1,2-a]indol-2-yl]quinoline-3-carboxylic acid], in test [1] (setting [3]), the GI50 was 1300 nM. Also, at Mcl-1, the pKi is above 9.00.
On the same counts, the results for `Cc1cc(OCCCc2c3n(c4c(-c5c(C)nc(N6CCN(C)CC6)nc5C)c(Cl)ccc24)CCCN(c2cn(C)c4ccc(C(=O)O)cc24)C3=O)cc(C)c1Cl` [Example 228, 3-(8-Chloro-11-(3-(4-chloro-3,5-dimethylphenoxy)propyl)-7-(4,6-dimethyl-2-(4-methylpiperazin-1-yl)pyrimidin-5-yl)-1-oxo-4,5-dihydro-1H-[1,4]diazepino[1,2-a]indol-2(3H)-yl)-1-methyl-1H-indole-5-carboxylic acid] are 780 nM and 8.80.
On the same counts, the results for `Cc1cc(OCCCc2c3n(c4c(-c5c(C)nn(C)c5C)c(Cl)ccc24)[C@H](C)CN(c2cccc4cc5n(c24)CCN(CCC(C)C)C5=O)C3=O)cc(C)c1Cl` [Example 229, (4R)-7-chloro-10-[3-(4-chloro-3,5-dimethyl-phenoxy)propyl]-2-(2-isopentyl-1-oxo-3,4-dihydropyrazino[1,2-a]indol-6-yl)-4-methyl-6-(1,3,5-trimethylpyrazol-4-yl)-3,4-dihydropyrazino[1,2-a]indol-1-one] are 9300 nM and 8.43.
